Key:
ACC2 = molecular target: T1, ACC2 (Homo sapiens, UniProt O00763); experiment: ACC2 inhibition IC50 (assay details not given; Supplementary Figure S1A); format: biochemical
T1 construct: gene ACACB

ACC1 = molecular target: T2, ACC1 (Homo sapiens, UniProt Q13085); experiment: ACC1 inhibition IC50 (assay details not given; Supplementary Figure S1A); format: biochemical
T2 construct: gene ACACA

T1 sequence (O00763 whole entry): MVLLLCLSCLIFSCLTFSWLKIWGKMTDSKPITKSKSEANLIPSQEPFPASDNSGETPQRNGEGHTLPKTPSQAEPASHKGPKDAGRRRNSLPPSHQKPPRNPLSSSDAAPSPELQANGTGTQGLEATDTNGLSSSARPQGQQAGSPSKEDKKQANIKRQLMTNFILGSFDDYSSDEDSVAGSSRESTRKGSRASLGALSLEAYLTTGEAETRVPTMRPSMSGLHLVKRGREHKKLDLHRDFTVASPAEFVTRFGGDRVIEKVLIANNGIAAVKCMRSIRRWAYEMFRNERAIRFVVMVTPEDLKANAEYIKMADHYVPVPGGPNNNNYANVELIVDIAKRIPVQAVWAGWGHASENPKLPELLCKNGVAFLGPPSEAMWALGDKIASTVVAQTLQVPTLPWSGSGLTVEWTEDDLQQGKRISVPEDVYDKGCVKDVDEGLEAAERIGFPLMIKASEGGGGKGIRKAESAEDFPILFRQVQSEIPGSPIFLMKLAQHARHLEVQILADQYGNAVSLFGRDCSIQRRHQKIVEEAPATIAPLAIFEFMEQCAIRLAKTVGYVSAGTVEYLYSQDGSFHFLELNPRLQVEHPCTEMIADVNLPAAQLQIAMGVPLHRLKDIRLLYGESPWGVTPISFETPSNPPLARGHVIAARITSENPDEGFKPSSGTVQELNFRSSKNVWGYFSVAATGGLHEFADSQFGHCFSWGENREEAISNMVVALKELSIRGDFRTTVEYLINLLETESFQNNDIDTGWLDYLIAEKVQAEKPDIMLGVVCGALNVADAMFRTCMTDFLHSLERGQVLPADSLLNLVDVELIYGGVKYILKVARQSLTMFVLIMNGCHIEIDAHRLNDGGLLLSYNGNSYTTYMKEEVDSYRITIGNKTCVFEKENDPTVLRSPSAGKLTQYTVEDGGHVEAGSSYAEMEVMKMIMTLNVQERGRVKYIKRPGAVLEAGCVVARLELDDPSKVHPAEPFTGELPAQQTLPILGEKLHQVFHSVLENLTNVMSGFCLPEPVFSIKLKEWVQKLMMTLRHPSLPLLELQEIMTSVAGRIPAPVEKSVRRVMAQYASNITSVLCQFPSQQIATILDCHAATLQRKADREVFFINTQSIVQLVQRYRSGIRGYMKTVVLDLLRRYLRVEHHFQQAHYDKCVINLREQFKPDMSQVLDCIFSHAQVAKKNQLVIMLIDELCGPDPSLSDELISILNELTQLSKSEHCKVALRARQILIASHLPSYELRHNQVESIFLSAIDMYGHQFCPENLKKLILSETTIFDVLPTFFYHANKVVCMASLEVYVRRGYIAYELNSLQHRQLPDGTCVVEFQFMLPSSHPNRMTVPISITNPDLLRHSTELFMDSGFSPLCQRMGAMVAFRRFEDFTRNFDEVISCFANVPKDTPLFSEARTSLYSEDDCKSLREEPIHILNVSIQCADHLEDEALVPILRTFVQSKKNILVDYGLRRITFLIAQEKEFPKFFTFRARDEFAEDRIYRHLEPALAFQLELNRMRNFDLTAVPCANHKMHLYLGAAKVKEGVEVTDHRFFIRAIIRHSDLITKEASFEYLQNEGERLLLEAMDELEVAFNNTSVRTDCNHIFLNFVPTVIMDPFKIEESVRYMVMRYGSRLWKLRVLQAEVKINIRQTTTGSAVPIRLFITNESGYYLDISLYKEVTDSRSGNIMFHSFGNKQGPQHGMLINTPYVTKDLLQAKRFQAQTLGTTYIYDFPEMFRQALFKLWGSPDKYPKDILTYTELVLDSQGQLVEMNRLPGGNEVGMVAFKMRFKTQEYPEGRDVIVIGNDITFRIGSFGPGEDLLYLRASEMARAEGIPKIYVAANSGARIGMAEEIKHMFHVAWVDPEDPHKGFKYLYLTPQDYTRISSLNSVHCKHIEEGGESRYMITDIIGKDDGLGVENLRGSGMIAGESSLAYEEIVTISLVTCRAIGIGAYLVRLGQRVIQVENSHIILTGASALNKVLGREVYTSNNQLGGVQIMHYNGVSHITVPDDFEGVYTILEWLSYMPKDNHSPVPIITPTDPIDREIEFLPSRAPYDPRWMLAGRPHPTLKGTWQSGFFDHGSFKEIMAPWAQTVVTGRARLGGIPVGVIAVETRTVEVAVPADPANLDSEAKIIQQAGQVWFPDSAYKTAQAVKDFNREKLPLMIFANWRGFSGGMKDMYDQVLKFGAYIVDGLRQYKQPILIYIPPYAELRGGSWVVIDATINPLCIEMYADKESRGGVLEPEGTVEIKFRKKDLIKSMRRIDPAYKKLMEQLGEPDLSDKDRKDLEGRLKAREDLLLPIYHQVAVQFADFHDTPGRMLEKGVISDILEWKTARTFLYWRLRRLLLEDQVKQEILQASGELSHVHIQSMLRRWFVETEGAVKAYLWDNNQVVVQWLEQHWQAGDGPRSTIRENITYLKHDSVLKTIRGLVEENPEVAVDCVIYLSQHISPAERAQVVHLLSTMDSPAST

Row | IC50 (ACC2) | IC50 (ACC1) | Substance
1 | 2600 nM | 280 nM | BAY ACC001
2 | 1400 nM | 100 nM | BAY ACC002

Reference: PMC5564715, “Acetyl-CoA carboxylase inhibitors attenuate WNT and Hedgehog signaling and suppress pancreatic tumor growth” (Oncotarget, 2016)
